Where two headings read alike, the source gives them in different places.
Target: T1, PKD2 (Homo sapiens, UniProt Q9BZL6)
T1 construct: made in house; host or cells: HEK293T cells, transient transfection with pDEST27-PRKD2, stimulated with 500 nM PDB before lysis
T1 sequence (Q9BZL6 1-878): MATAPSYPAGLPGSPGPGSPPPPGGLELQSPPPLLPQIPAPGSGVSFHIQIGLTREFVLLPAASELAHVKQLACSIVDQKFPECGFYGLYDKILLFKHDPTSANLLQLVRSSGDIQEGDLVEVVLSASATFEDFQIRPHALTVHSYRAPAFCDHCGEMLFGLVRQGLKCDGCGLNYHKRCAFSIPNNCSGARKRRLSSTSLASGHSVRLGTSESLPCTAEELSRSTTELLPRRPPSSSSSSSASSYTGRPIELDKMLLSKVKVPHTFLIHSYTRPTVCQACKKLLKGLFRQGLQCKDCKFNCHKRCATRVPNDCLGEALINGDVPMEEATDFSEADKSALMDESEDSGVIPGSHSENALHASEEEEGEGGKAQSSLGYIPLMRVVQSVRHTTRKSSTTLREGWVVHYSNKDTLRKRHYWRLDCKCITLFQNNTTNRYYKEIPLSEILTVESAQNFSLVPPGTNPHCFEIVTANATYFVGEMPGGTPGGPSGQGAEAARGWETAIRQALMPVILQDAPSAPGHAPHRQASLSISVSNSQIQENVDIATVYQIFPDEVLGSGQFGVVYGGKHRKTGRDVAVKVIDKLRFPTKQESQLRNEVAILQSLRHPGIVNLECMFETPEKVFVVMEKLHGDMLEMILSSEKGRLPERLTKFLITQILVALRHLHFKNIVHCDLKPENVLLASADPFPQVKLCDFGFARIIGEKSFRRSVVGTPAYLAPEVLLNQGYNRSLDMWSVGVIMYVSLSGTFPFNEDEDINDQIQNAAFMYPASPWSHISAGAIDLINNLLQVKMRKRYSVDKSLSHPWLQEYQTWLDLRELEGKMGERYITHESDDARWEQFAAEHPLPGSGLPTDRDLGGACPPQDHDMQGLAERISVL
Test: PKD2 screening assay (in vitro radiometric kinase assay)
Format: biochemical
Conditions: for remaining activity at 1 µM: 10 min; for IC50: radiometric
Protocol: All 35 described analogues were characterized in vitro via an initial screening at 1 μM against PKD2. […]
scanning of a coomassie stained SDS-polyacrylamide gel.
An in vitro radiometric assay was used to determine the inhibition of PKD in presence of various compounds at a […]
determinations. Reactions were carried out in 40µl of a mixture containing 50mM Tris-HCl pH 7.4, 10mM MgCl2, 50ng of PDB stimulated GST-PKD2, 4µg/ml Syntide-2 (Sigma Aldrich, St. Louis, USA), 25µM ATP and 2µCi [γ-32P]ATP (Perkin-Elmer, Massachusetts, USA). After 10’ the reaction was stopped by spotting 30µl of the reaction on whatmann P81 filter paper. The filter papers were washed 3 times in 0.5% phosphoric acid, followed by one wash in 100% acetone. Subsequently the papers were air-dried and counted using the Tri-Carb 2810 TR scintillation counter (Perkin-Elmer). Percentage of PKD2 inhibition was determined relative to a condition where no inhibitor was added (0,1% dimethylsulfoxide (DMSO)). Graphs were plotted and IC50 values were determined using the GraphPad software package (Prism). […]

[1] = ESI table, initial screening of all analogues at 1µM, read-out: % PKD2 activity remaining (1µM) (average ±SD)
[2] = compound at 1 μM, PDB stimulated GST-PKD2, Syntide-2, 25µM ATP, relative to no inhibitor (DMSO), read-out: % PKD 2 activity remaining (1 μM) (Average ± SD)
[3] = PDB stimulated GST-PKD2, Syntide-2, 25µM ATP

remaining activity at 1 µM [1] [%]	remaining activity at 1 µM [2] [%]	IC50 [3] [µM]	Compound	% PKD2 activity remaining (1µM) (average ±SD) (ESI table, initial screening of all analogues at 1µM) [%]
91 ± 8.5			CCCCNc1nc(N)c2c(-c3cccc(C(F)(F)F)c3)nn(C(C)(C)C)c2n1 [Compound 13f, N6-butyl-1-tert-butyl-3-[3-(trifluoromethyl)phenyl]-1H-pyrazolo[3,4-d]pyrimidine-4,6-diamine]	
101 ± 3.3			Cn1nc(CCCc2ccccc2)c2c(N)ncnc21 [Compound 7j, 1-methyl-3-(3-phenylpropyl)-1H-pyrazolo[3,4-d]pyrimidin-4-amine]	
80 ± 7			COc1ccc(-c2nn(C(C)(C)C)c3ncnc(N)c23)cc1 [Compound 6e, 1-tert-butyl-3-(4-methoxyphenyl)-1H-pyrazolo[3,4-d]pyrimidin-4-amine]	
59 ± 5			CC(C)(C)n1nc(-c2ccc3ccccc3c2)c2c(N)ncnc21 [Compound 6h, 1-tert-butyl-3-(2-naphthyl)-1H-pyrazolo[3,4-d]pyrimidin-4-amine]	
56 ± 2.4	55 ± 2.4		CC(C)(C)n1nc(Cc2cccc(Cl)c2)c2c(N)ncnc21 [Compound 7c, 1-tert-butyl-3-(3-chlorobenzyl)-1H-pyrazolo[3,4-d]pyrimidin-4-amine]	
97 ± 0.8			CC(C)(C)n1nc(-c2ccc(C#N)cc2)c2c(N)ncnc21 [Compound 6j, 4-(4-amino-1-(tert-butyl)-1H-pyrazolo[3,4-d]pyrimidin-3-yl)benzonitrile]	
82 ± 7.2			CCCCNc1nc(N)c2c(-c3ccsc3)nn(C(C)(C)C)c2n1 [Compound 13e, N6-butyl-1-tert-butyl-3-(3-thienyl)-1H-pyrazolo[3,4-d]pyrimidine-4,6-diamine]	
78 ± 3.3			CC(C)(C)n1nc(Cc2ccc(Cl)c(Cl)c2)c2c(N)ncnc21 [Compound 7h, 1-tert-butyl-3-(3,4-dichlorobenzyl)-1H-pyrazolo[3,4-d]pyrimidin-4-amine]	
90 ± 5.1			CC(C)(C)n1nc(Cc2cccc(Cl)c2Cl)c2c(N)ncnc21 [Compound 7g, 1-tert-butyl-3-(2,3-dichlorobenzyl)-1H-pyrazolo[3,4-d]pyrimidin-4-amine]	
41 ± 2.6	41 ± 2.6	0.451	CC(C)(C)n1nc(Cc2ccccc2Cl)c2c(N)ncnc21 [Compound 7b, 1-tert-butyl-3-(2-chlorobenzyl)-1H-pyrazolo[3,4-d]pyrimidin-4-amine]	
81 ± 4			CC(C)(C)n1nc(-c2ccc(F)cc2)c2c(N)ncnc21 [Compound 6b, 1-tert-butyl-3-(4-fluorophenyl)-1H-pyrazolo[3,4-d]pyrimidin-4-amine]	
93 ± 1.5			CC(C)(C)c1ccc(-c2nn(C(C)(C)C)c3ncnc(N)c23)cc1 [Compound 6k, 1-(tert-butyl)-3-(4-(tert-butyl)phenyl)-1H-pyrazolo[3,4-d]pyrimidin-4-amine]	
81 ± 6.6			CCCCNc1nc(N)c2c(-c3cccc(Cl)c3)nn(C(C)(C)C)c2n1 [Compound 13b, N6-butyl-1-tert-butyl-3-(3-chlorophenyl)-1H-pyrazolo[3,4-d]pyrimidine-4,6-diamine]	
77 ± 2.9	76 ± 2.9	9.49	CC(C)(C)n1nc(-c2ccccc2)c2c(N)ncnc21 [Compound 6a, 1-tert-butyl-3-phenyl-1H-pyrazolo[3,4-d]pyrimidin-4-amine]	
92.8 ± 5.8	93 ± 5.8	> 50	CC(C)(C)n1nc(CCCCc2ccccc2)c2c(N)ncnc21 [Compound 7k, 1-tert-butyl-3-(4-phenylbutyl)-1H-pyrazolo[3,4-d]pyrimidin-4-amine]	
59 ± 3.3			CC(C)(C)n1nc(Cc2cccc(Br)c2)c2c(N)ncnc21 [Compound 7f, 3-(3-bromobenzyl)-1-tert-butyl-1H-pyrazolo[3,4-d]pyrimidin-4-amine]	
76 ± 2.7			CCCCNc1nc(N)c2c(-c3ccc4ccccc4c3)nn(C(C)(C)C)c2n1 [Compound 13g, N6-butyl-1-tert-butyl-3-(2-naphthyl)-1H-pyrazolo[3,4-d]pyrimidine-4,6-diamine]	
101 ± 8.3	101 ± 8.3	> 50	CC(C)(C)n1nc(CCCc2ccccc2)c2c(N)ncnc21 [Compound 7i, 1-tert-butyl-3-(3-phenylpropyl)-1H-pyrazolo[3,4-d]pyrimidin-4-amine]	
43 ± 6.6	43 ± 6.6	0.535	CC(C)(C)n1nc(Cc2ccccc2Br)c2c(N)ncnc21 [Compound 7e, 3-(2-bromobenzyl)-1-tert-butyl-1H-pyrazolo[3,4-d]pyrimidin-4-amine]	
77 ± 5.1			CCCCNc1nc(N)c2c(-c3ccccc3)nn(C(C)(C)C)c2n1 [Compound 13a, N6-butyl-1-tert-butyl-3-phenyl-1H-pyrazolo[3,4-d]pyrimidine-4,6-diamine]	
83 ± 6.4	83 ± 6.4	4.84	Cn1nc(Cc2cccc(Cl)c2)c2c(N)ncnc21 [Compound 7d, 3-(3-chlorobenzyl)-1-methyl-1H-pyrazolo[3,4-d]pyrimidin-4-amine]	
			2-acetyl-5-(4-amino-1-(tert-butyl)-1H-pyrazolo[3,4-d]pyrimidin-3-yl)benzaldehyde [Compound 6f]	81 ±4.5
98 ± 6.4			Cn1nc(CCCCc2ccccc2)c2c(N)ncnc21 [Compound 7l, 1-methyl-3-(4-phenylbutyl)-1H-pyrazolo[3,4-d]pyrimidin-4-amine]	
83 ± 9.4			CC(C)(C)n1nc(-c2ccccc2F)c2c(N)ncnc21 [Compound 6d, 1-tert-butyl-3-(2-fluorophenyl)-1H-pyrazolo[3,4-d]pyrimidin-4-amine]	
69 ± 8.3			CCCCNc1nc(N)c2c(-c3ccc(F)cc3)nn(C(C)(C)C)c2n1 [Compound 13c, N6-butyl-1-tert-butyl-3-(4-fluorophenyl)-1H-pyrazolo[3,4-d]pyrimidine-4,6-diamine]	
73 ± 2.4			CC(C)(C)n1nc(-c2ccccc2Cl)c2c(N)ncnc21 [Compound 6c, 1-tert-butyl-3-(2-chlorophenyl)-1H-pyrazolo[3,4-d]pyrimidin-4-amine]	
84 ± 9.4			C=Cc1ccc(-c2nn(C(C)(C)C)c3ncnc(N)c23)cc1 [Compound 6g, 1-(tert-butyl)-3-(4-vinylphenyl)-1H-pyrazolo[3,4-d]pyrimidin-4-amine]	
80 ± 2.5			CCCCNc1nc(N)c2c(-c3ccc(OC)cc3)nn(C(C)(C)C)c2n1 [Compound 13d, N6-butyl-1-tert-butyl-3-(4-methoxyphenyl)-1H-pyrazolo[3,4-d]pyrimidine-4,6-diamine]	
64 ± 3.9	64 ± 3.9	4.66	Cn1nc(Cc2cccc3ccccc23)c2c(N)ncnc21 [Compound 7m, 1-methyl-3-(1-naphthylmethyl)-1H-pyrazolo[3,4-d]pyrimidin-4-amine]	
35 ± 1.3	35 ± 1.3	0.449	CC(C)(C)n1nc(Cc2ccccc2)c2c(N)ncnc21 [Compound 7a, 3-benzyl-1-tert-butyl-1H-pyrazolo[3,4-d]pyrimidin-4-amine]	

Compound	remaining activity at 1 µM [1] [%]	remaining activity at 1 µM [2] [%]	IC50 [3] [µM]	% PKD2 activity remaining (1µM) (average ±SD) (ESI table, initial screening of all analogues at 1µM) [%]
CC(C)(C)n1nc(-c2cccc3ccccc23)c2c(N)ncnc21 [Compound 6i, 1-tert-butyl-3-(1-naphthyl)-1H-pyrazolo[3,4-d]pyrimidin-4-amine]	34 ± 0.4	34 ± 0.4	0.403	

Reference: paper PMC5567267, “Discovery of a potent protein kinase D inhibitor: insights in the binding mode of pyrazolo[3,4-d]pyrimidine analogues” (MedChemComm, 2017)
